EP1368020B1, “METHOD FOR IDENTIFYING MAXI-K CHANNEL BLOCKERS” (priority 2001, dated 2002)

Assays:
Assay type in all cases: cell-based
[1] = target: T1, maxi-K channels transiently expressed in TsA-201 cells (Homo sapiens, UniProt Q12791); test: FRET membrane potential assay (VIPR), maxi-K channels transiently expressed in TsA-201 cells; settings: 3 µM, Figure 2
T1 construct: expressed in transfected cells; host or cells: TsA-201 cells, transient transfection

[2] = target: T2, maxi-K channel (alpha and beta1 subunits) in stably transfected HEK-293 cells (Homo sapiens, UniProt Q12791); test: FRET membrane potential assay (VIPR), HEK-293 cells stably transfected with alpha and beta1 subunits of the maxi-K channel
T2 construct: expressed in transfected cells
T2 sequence (Q12791 whole entry): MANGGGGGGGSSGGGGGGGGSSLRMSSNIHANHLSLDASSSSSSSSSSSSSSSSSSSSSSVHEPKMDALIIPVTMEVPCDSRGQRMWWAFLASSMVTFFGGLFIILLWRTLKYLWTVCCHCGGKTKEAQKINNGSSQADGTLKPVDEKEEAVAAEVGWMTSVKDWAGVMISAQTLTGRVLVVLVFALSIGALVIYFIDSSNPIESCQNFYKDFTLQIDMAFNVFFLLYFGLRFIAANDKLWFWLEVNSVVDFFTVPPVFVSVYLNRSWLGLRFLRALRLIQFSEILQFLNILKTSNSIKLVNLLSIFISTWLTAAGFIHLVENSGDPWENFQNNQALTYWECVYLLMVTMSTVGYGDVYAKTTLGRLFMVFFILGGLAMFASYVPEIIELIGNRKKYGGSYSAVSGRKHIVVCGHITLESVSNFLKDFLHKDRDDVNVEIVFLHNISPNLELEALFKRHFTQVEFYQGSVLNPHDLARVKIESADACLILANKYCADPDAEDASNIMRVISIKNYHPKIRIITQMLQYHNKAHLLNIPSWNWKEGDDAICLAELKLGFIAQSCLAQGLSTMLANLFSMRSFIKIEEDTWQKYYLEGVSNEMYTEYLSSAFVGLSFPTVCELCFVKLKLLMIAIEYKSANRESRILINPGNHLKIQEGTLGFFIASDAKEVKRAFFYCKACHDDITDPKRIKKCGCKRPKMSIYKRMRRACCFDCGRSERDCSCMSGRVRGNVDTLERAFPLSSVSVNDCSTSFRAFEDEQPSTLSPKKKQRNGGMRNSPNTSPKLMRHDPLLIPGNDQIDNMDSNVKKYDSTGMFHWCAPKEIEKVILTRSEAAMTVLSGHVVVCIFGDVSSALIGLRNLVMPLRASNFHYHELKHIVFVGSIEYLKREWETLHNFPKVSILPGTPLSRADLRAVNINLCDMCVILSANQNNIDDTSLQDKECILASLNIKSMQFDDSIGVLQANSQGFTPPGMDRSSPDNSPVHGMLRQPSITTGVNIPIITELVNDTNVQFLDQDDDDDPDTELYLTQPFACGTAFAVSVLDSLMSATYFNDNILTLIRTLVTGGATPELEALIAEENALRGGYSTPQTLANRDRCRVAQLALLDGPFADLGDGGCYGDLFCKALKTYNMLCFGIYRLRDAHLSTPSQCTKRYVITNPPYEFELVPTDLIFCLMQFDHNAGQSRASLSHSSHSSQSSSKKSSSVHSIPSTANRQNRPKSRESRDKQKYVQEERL
T2 sequence (Q16558 whole entry partner): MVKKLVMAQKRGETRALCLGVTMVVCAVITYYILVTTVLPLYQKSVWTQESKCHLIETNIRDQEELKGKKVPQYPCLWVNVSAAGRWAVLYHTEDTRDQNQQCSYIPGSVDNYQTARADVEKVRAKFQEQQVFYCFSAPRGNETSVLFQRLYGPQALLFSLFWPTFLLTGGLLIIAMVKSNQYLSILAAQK
Description: Transfection of the alpha and beta1 subunits of the maxi-K channel in HEK-293 cells was carried out as follows: HEK-293 cells were plated in 100 mm tissue culture treated dishes at a density of 3x10^6 cells per dish, and a total of five dishes were prepared. Cells were grown in a medium consisting of Dulbecco's Modified Eagle Medium (DMEM) supplemented with 10% Fetal Bovine serum, 1X L-Glutamine, and 1X Penicillin/Streptomycin, at 37°C, 10% CO2. For transfection with Maxi-K hα (pCIneo) and Maxi-K hβ1 (pIRESpuro) DNAs, 150 µl FuGENE6™ was added dropwise into 10 ml of serum free/phenol-red free DMEM and allowed to incubate at room temperature for 5 minutes. Then, the FuGENE6™ solution was added dropwise to a DNA solution containing 25 µg of each plasmid DNA, and incubated at room temperature for 30 minutes. After the incubation period, 2 ml of the FuGENE6™/DNA solution was added dropwise to each plate of cells and the cells were allowed to grow two days under the same conditions as described above. At the end of the second day, cells were put under selection media which consisted of DMEM supplemented with both 600 µg/ml G418 and 0.75 µg/ml puromycin. Cells were grown until separate colonies were formed. Five colonies were collected and transferred to a 6 well tissue culture treated dish. A total of 75 colonies were collected. Cells were allowed to grow until a confluent monolayer was obtained. Cells were then tested for the presence of maxi-K channel alpha and beta 1 subunits using an assay that monitors binding of ^125I-iberiotoxin-D19Y/Y36F to the channel. Cells expressing ^125I-iberiotoxin-D19Y/Y36F binding activity were then evaluated in a functional assay that monitors the capability of maxi-K channels to control the membrane potential of transfected HEK-293 cells using fluorescence resonance energy transfer (FRET) ABS technology with a VIPR instrument. The colony giving the largest signal to noise ratio was subjected to limiting dilution. For this, cells were resuspended at approximately 5 cells/ml, and 200 µl were plated in individual wells in a 96 well tissue culture treated plate, to add ca. one cell per well. A total of two 96 well plates were made. When a confluent monolayer was formed, the cells were transferred to 6 well tissue culture treated plates. A total of 62 wells were transferred. When a confluent monolayer was obtained, cells were tested using the FRET-functional assay. […]
The plates are loaded into a voltage/ion probe reader (VIPR) instrument, and the fluorescence emission of both CC2DMPE and DiSBAC2(3) are recorded for 10 sec. At this point, 100 µl of high-potassium solution (mM): 140 KCl, 2 CaCl2, 1 MgCl2, 20 Hepes-KOH, pH 7.4, 10 glucose are added and the fluorescence emission of both dyes recorded for an additional 10 sec. […]

[3] = system: endogenous potassium conductance of HEK-293 cells; test: FRET membrane potential assay (VIPR), high-potassium addition to untransfected HEK-293 cells; settings: Figure 1; for effect on the fluorescence signal caused by high-potassium addition: different/increasing concentrations of compound; for efficacy of Compound A or Compound B in the presence of Compound 1: selective maxi-K channel blocker Compound 1 present
Description: HEK-293 cells were plated on 96-well poly-D-lysine plates and incubated for about 16 to 24 hours at 37°C. The media was aspirated and the cells were washed once with D-PBS. Cells were incubated with 9 µM coumarin (CC2DMPE)-0.02% pluronic-127 in D-PBS for 30 minutes in the dark. Cells were washed twice with D-PBS, and incubated with 4.5 µM oxanol (DiSBAC2(3)) in the absence (Control) or presence of increasing concentrations of test compound, in the dark for 30 minutes. Plates were loaded onto a VIPR instrument and the fluorescence emission of both dyes was recorded for 10 seconds. A solution containing high-potassium was then added and the fluorescence emission of the dyes was recorded for another 10 seconds. The coumarin/oxanol ratio was calculated under both conditions. Before addition of high-potassium, this ratio was always normalized to 1.
The signal is not affected by the presence of different concentrations of the selective maxi-K channel blocker, Compound 1. […] A useful concentration range for these agents is 3-10 µM. Importantly, in the presence of the selective maxi-K channel blocker Compound 1, the efficacy of either Compound A or Compound B is unaffected.

T1 sequence (Q12791 whole entry): as the sequence (Q12791 whole entry) above
T1 sequence (Q16558 whole entry partner): as the sequence (Q16558 whole entry partner) above

Structure (SMILES)	effect on control signal (maxi-K channel activity) [1]	inhibition of the control signal ([2]; 3 µM Compound A present in all wells, increasing concentrations of compound, Figure 4)	block of the signal generated by addition of a high-potassium solution ([2]; compound alone, no endogenous conductance blocker, Figure 3)	inhibition of the signal generated by addition of a high-potassium solution ([2]; in the presence of Compound A, Figure 3)	effect on the fluorescence signal caused by high-potassium addition [3]	effect on the magnitude of the signal caused by addition of high-potassium solution ([2]; Compound A alone, Figure 3)	efficacy of Compound A or Compound B in the presence of Compound 1 [3]
COc1ccc2c(c1)c(CC(=O)N(C(=O)NC1CCCCC1)C1CCCCC1)c(C)n2C(=O)c1ccc(Cl)cc1 [Compound 1]	completely inhibits the control signal	concentration-dependent inhibition of the control signal	only partially blocks the signal	complete inhibition of the signal	not affected	–	–
CCCNC(=O)OC1CCC(CNC(=O)c2ccccc2OC)(c2ccccc2)CC1 (stereo not shown) [Compound A]	–	–	–	–	concentration-dependent inhibition of the fluorescence signal	no significant effect on the magnitude of the signal	unaffected
COc1ccccc1C(=O)NCC1(c2ccccc2)CCC(=O)CC1 [Compound B]	–	–	–	–	concentration-dependent inhibition of the fluorescence signal	–	unaffected
